Our source for the IC50 values is patent publication US9555039B2, “Piperidine derivatives and compositions for the inhibition of nicotinamide phosphoribosyltransferase (NAMPT)” (Forma TM, LLC., priority 2011, dated 2017).

Read-outs that look alike come from different tables or passages of the source.

The term IC50 denotes the concentration that inhibits the measured activity by half.

One test deals with A2780 cells. Put plainly: In-vitro cell proliferation assay (SRB, 72 hours). It is filed as cell-based. The note with it: sulforhodamine B (SRB) assay. The protocol: In-Vitro Cell Proliferation Assay
After overnight incubation at 37° C. and 5% CO2, the compound titrations were performed in a separate dilution plate by serially diluting the compounds in DMSO to make a 1000× stock. The compounds were then further diluted to 10× final concentration in culture media, whereupon 20 μL of each dilution was added to the plated cells with controls (e.g. DMSO and blank) to make a final volume of 200 μL. The final DMSO concentration in each well was 0.1%. The plates were then incubated for 72 hours at 37° C. in a 5% CO2 incubator. The number of viable cells was then assessed using sulforhodamine B (SRB) assay. Cells were fixed at 4° C. for 1 hour with the addition of 50 μL 30% trichloroacetic acid (TCA) to make a final concentration of 6% TCA. The plates were washed four times with H2O and allowed to dry for at least 1 hour, whereupon 100 μL of a 4% SRB in 1% acetic acid solution was added to each well and incubated at room temperature for at least 30 minutes. The plates were then washed three times with 1% acetic acid, dried, and treated with 100 μL of 10 mM Tris-Base solution. The plates were then read in a microplate reader at an absorbance of 570 nm. Background was generated on a separate plate with media only.
Method for Determining % Inhibition
First, the signals from the background plate are averaged, then the background was subtracted from the test plates.
wherein x denotes the average signal of the compound-treated cells and y denotes the average signal of the DMSO-treated cells.
wherein X denotes the compound concentration 1, Y denotes the compound concentration 2, XX denotes the % inhibition at compound concentration 1 (X), and YY denotes the % inhibition at compound concentration 2 (Y).
For orientation: Sulforhodamine B stains cellular protein and so reports cell mass.

Test [1] concerns the target T1, Recombinant His-tagged NAMPT (Homo sapiens, UniProt P43490).
T1 construct: His; host or cells: E. coli
The test can be described thus: Biochemical inhibition assay: NAMPT enzymatic reaction, NMN quantified by mass spectrometry. The following applies: 33 nM NAMPT, 1 μM NAM, 100 μM PRPP, 30 minutes at room temperature, read-out: Biochem IC50. The protocol:
Biochemical Inhibition Assay
NAMPT Protein Purification
Recombinant His-tagged NAMPT was produced in E. coli cells, purified over a Ni column, and further purified over a size-exclusion column by XTAL Biostructures.
The NAMPT Enzymatic Reaction
The NAMPT enzymatic reactions were carried out in Buffer A (50 mM Hepes pH 7.5, 50 mM NaCl, 5 mM MgCl2, and 1 mM THP) in 96-well V-bottom plates. The compound titrations were performed in a separate dilution plate by serially diluting the compounds in DMSO to make a 100× stock. […] The compound and enzyme mix was incubated for 15 minutes at room temperature, then 10 μL of 10× substrate and co-factors in Buffer A were added to the test well to make a final concentration of 1 μM NAM, 100 μM 5-Phospho-D-ribose 1-diphosphate (PRPP), and 2.5 mM Adenosine 5′-triphosphate (ATP). The reaction was allowed to proceed for 30 minutes at room temperature, then was quenched with the addition of 11 μL of a solution of formic acid and L-Cystathionine to make a final concentration of 1% formic acid and 10 μM L-Cystathionine. Background and signal strength was determined by addition (or non-addition) of a serial dilution of NMN to a pre-quenched enzyme and cofactor mix.
A mass spectrometry-based assay was used to measure the Nampt reaction product (NMN) and the internal control (L-Cystathionine). NMN and L-Cystathionine were detected using the services of Biocius Lifesciences with the RapidFire system. In short, the NMN and L-Cystathionine are bound to a graphitic carbon cartridge in 0.1% formic acid, eluted in 30% acetonitrile buffer, and injected into a Sciex 4000 mass spectrometer. The components of the sample were ionized with electrospray ionization and the positive ions were detected. […] The fragments are quantified and the analyzed by the following method.
First the NMN signal is normalized to the L-Cystathionine signal by dividing the NMN signal by the L-Cystathionine signal for each well. The signal from the background wells are averaged and subtracted from the test plates.
Wherein x denotes the average signal of the compound treated wells and y denotes the average signal of the DMSO treated wells.
IC50s are Determined Using Excel and this Formula.
Wherein X denotes the compound concentration 1, Y denotes the compound concentration 2, XX denotes the % inhibition at compound concentration 1 (X), and YY denotes the % inhibition at compound concentration 2 (Y).

T1 sequence (P43490 whole entry): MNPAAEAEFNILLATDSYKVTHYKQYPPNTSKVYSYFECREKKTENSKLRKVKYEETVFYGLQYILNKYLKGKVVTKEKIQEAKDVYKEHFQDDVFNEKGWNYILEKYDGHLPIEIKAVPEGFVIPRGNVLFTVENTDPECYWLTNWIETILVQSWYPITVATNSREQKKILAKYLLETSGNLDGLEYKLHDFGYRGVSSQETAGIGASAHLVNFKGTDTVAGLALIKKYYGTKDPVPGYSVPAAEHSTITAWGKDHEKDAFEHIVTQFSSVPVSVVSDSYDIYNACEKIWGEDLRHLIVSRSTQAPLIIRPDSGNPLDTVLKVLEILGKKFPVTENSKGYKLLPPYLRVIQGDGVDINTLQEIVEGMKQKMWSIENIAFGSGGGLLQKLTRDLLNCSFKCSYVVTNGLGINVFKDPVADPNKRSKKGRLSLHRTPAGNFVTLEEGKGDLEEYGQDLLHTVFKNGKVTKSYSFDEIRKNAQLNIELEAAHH

Take `CSc1ncccc1C(=O)N1CCC(CCCCNC(=O)c2cc3ccncc3s2)CC1` [N-[4-(1-{[2-(methylsulfanyl)pyridin-3-yl]carbonyl}piperidin-4-yl)butyl]thieno[2,3-c]pyridine-2-carboxamide]: the IC50 was found to be 1.4 nM in the test on A2780 cells (Homo sapiens) and 10.1 nM in test [1] (2.5 mM ATP).

For the molecule `O=C(NCCCCC1CCN(C(=O)c2ccc(F)cc2F)CC1)c1cc2ccncc2s1` [N-(4-{1-[(2,4-difluorophenyl)carbonyl]piperidin-4-yl}butyl)thieno[2,3-c]pyridine-2-carboxamide], the 50% inhibitory concentration (IC50) in the test on A2780 cells (Homo sapiens) was 13.5 nM; in test [1] (2.5 mM ATP), 12.8 nM.

Regarding `O=C(NCCCCC1CCN(C(=O)c2cc3ccccc3s2)CC1)c1cc2ccncc2s1` [N-(4-{1-[(1-benzothiophen-2-yl)carbonyl]piperidin-4-yl}butyl)thieno[2,3-c]pyridine-2-carboxamide], the IC50 in the test on A2780 cells (Homo sapiens) was 100 to 1000 nM; in test [1] (2.5 mM ATP), 17.7 nM.

Regarding `O=C(NCCCCN1CCN(C(=O)c2cccc(Cl)c2)CC1)c1cc2cnccc2[nH]1` [N-(4-{4-[(3-chlorophenyl)carbonyl]piperazin-1-yl}butyl)-1H-pyrrolo[3,2-c]pyridine-2-carboxamide], the results for the IC50 (with A2780 cells (Homo sapiens); in test [1] (2.5 mM ATP)) were 347 nM and 106 nM, respectively.

Consider `Cc1ccc(C(=O)N2CCC(CCCCNC(=O)c3ccc4nccn4c3)CC2)cn1` [N-(4-{1-[(6-methylpyridin-3-yl)carbonyl]piperidin-4-yl}butyl)imidazo[1,2-a]pyridine-6-carboxamide], for which the results for the IC50 (in the test with A2780 cells (Homo sapiens); in test [1] (2.5 mM ATP)) were 73.6 nM and 23.8 nM, respectively.

For `Cc1c(F)cccc1C(=O)N1CCC(CCCCNC(=O)c2cc3cnccc3[nH]2)CC1` [N-(4-{1-[(3-fluoro-2-methylphenyl)carbonyl]piperidin-4-yl}butyl)-1H-pyrrolo[3,2-c]pyridine-2-carboxamide], the concentration for half-maximal inhibition (IC50) is 3.1 nM in the test with A2780 cells (Homo sapiens) and 20.5 nM in test [1] (2.5 mM ATP).

For the molecule `Cc1ncccc1C(=O)N1CCC(CCCCNC(=O)c2ccc3nccn3c2)CC1` [N-(4-{1-[(2-methylpyridin-3-yl)carbonyl]piperidin-4-yl}butyl)imidazo[1,2-a]pyridine-6-carboxamide], the IC50 amounted to 1.8 nM in the test with A2780 cells (Homo sapiens) and 9.8 nM in test [1] (2.5 mM ATP).

Regarding `Cc1nc(C(=O)N2CCC(CCCCNC(=O)c3ccc4nccn4c3)CC2)cs1` [N-(4-{1-[(2-methyl-1,3-thiazol-4-yl)carbonyl]piperidin-4-yl}butyl)imidazo[1,2-a]pyridine-6-carboxamide], the IC50 came out at 61.1 nM with A2780 cells (Homo sapiens) and 31.4 nM in test [1] (2.5 mM ATP).

`COc1ccc(C(=O)N2CCC(CCCCNC(=O)c3cc4ccncc4s3)CC2)cc1F` [N-(4-{1-[(3-fluoro-4-methoxyphenyl)carbonyl]piperidin-4-yl}butyl)thieno[2,3-c]pyridine-2-carboxamide]: the concentration for half-maximal inhibition (IC50) in the test on A2780 cells (Homo sapiens) is 100 to 1000 nM; in test [1] (2.5 mM ATP) it was 71.4 nM.

In the case of `O=C(NCCCCC1CCN(C(=O)c2ccc(OC(F)(F)F)cc2)CC1)c1cc2ccncc2s1` [N-[4-(1-{[4-(trifluoromethoxy)phenyl]carbonyl}piperidin-4-yl)butyl]thieno[2,3-c]pyridine-2-carboxamide], the results for the IC50 (with A2780 cells (Homo sapiens); in test [1] (2.5 mM ATP)) were 100 to 1000 nM and 166 nM, respectively.

Consider `O=C(NCCCCC1CCN(C(=O)c2ccc3cc[nH]c3c2)CC1)c1cc2cnccc2[nH]1` [N-(4-{1-[(1H-indol-6-yl)carbonyl]piperidin-4-yl}butyl)-1H-pyrrolo[3,2-c]pyridine-2-carboxamide], for which the concentration for half-maximal inhibition (IC50) worked out at 13.4 nM in the test with A2780 cells (Homo sapiens) and 52.9 nM in test [1] (2.5 mM ATP).

In the case of `O=C(NCCCCC1CCN(C(=O)c2ccc3[nH]ccc3c2)CC1)c1cc2ccncc2s1` [N-(4-{1-[(1H-indol-5-yl)carbonyl]piperidin-4-yl}butyl)thieno[2,3-c]pyridine-2-carboxamide], the IC50 in the test on A2780 cells (Homo sapiens) stood at 71.1 nM; in test [1] (2.5 mM ATP), 42.7 nM.

For `O=C(NCCCCC1CCN(S(=O)(=O)c2ccc(OC(F)(F)F)cc2)CC1)c1cc2cnccc2[nH]1` [N-[4-(1-{[4-(trifluoromethoxy)benzene]sulfonyl}piperidin-4-yl)butyl]-1H-pyrrolo[3,2-c]pyridine-2-carboxamide], the IC50 in the test with A2780 cells was found to be 27.2 nM; in test [1] ([…] ATP), 76 nM.
